Experimental data from patent US5508302A, “Phospholipase A2 inhibitors” (American Home Products Corporation, priority 1994, dated 1996).
Several values for one entry are separate records, joined by “and”; a condition that tells them apart may be missing. Identical values can stand only once. Counter-ions that a name gives are not always drawn.

Assays:
cyclooxygenase = assay: resident murine peritoneal macrophage test, PGE2 (cyclooxygenase) by RIA; format: cell-based, mouse (female Swiss Webster); conditions: for IC50: 95% confidence limits given, mouse macrophages
Protocol: (§1) The ability of the compounds of the invention to act as inhibitors of the enzymes 5-lipoxygenase and cyclooxygenase was evaluated in the resident murine peritoneal macrophage standard pharmacological test procedure. This test procedure was carried out as follows.
(§2) Resident peritoneal macrophages were collected from female Swiss Webster mice (49 days old, 20-25 gms, Buckshire) by lavaging with 7-8 ml Hanks Balanced Salt Solution (HBSS) without Ca^++ and Mg^++ (GIBCO). The lavage fluid from several mice was pooled and centrifuged at 4° C. for 10 minutes at 400 xg. The cell pellet was resuspended in Medium 199 (GIBCO) with HEPES buffer containing 100 μg/ml gentamicin. Two ml of the cell suspension (4×10^6 cells) were then plated on 35 mm culture dishes (Nunc).
A macrophage monolayer was established after a 1-1.5 hour incubation of the cells at 37° C. in an atmosphere of […] and 5% CO2. The monolayers were washed 2x with 2 ml HBDSS, containing Ca^++ and Mg^++ after which 2 ml Medium 199 supplemented with 10% freshly thawed heat-inactivated fetal bovine serum and 100 μg/ml gentamicin was added for an overnight incubation.
(§3) Residual serum and cellular debris were removed from the monolayers by washing 3x with 2 ml HBSS containing Ca^++ and Mg^++. Macrophages were preincubated for 5 minutes with 1 ml serum-free M199 containing 10 μl dimethyl sulfoxide (DMSO) vehicle or test compound prior to cell activation with zymosan ([…]) or arachidonic acid (AA) (2 μM). After 2 hours, the supernatants are removed and either assayed for LTC4 and PGE2 by radioimmunoassay (RIA) directly or stored at -20° C. In all cases, results are expressed as ng metabolite/4×10^6 cells.
(§4) Calculations: The raw data were converted to ng metabolite/4-10^6 cells using a standard curve. Results were then expressed as percent inhibition of zymosan induced, leukotriene or prostaglandin synthesis (control) using the following equation: […]

5-lipoxygenase = target: T1, 5-lipoxygenase (Mus musculus, UniProt P48999); assay: resident murine peritoneal macrophage test, LTC4 (5-lipoxygenase) by RIA; format: cell-based, mouse (female Swiss Webster)
T1 construct: Resident peritoneal macrophages were collected from female Swiss Webster mice; endogenous in cells; host or cells: resident peritoneal macrophages of female Swiss Webster mice
T1 sequence (P48999 1-674): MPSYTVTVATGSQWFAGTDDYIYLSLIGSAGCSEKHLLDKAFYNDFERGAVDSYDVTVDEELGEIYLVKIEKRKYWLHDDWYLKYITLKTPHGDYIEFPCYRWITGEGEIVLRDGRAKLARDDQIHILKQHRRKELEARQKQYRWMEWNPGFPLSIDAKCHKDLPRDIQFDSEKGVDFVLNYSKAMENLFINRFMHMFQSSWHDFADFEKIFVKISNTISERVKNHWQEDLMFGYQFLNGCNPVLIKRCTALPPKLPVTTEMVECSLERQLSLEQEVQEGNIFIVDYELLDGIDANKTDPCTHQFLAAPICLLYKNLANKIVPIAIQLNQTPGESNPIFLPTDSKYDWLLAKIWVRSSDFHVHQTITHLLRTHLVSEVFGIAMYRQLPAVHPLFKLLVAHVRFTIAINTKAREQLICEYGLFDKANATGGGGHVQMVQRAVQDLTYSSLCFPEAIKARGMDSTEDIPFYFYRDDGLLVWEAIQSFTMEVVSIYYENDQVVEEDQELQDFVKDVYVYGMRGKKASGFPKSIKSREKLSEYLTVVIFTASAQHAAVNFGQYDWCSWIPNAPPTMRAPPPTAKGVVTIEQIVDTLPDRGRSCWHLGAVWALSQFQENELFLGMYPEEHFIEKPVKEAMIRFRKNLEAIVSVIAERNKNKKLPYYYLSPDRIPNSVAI
Protocol: as §1
as §2, with “The cell pellet was resuspended in Medium 199 (GIBCO) with HEPES buffer containing 100 μg/ml gentamicin.” left out
as §3, §4

[1] = system: tetradecanoylphorbol acetate (TPA) induced ear edema; assay: TPA induced ear edema in Webster mice (dermal inflammation); format: in vivo; conditions: for inhibition of TPA induced ear edema: 100 mg/kg, oral, 30 min after TPA, ears measured 4 hrs after TPA
Protocol: Representative compounds of this invention were evaluated in an in vivo standard pharmacological test procedure that measured the effect of the representative compounds on dermal inflammation, as measured by the prevention of tetradecanoylphorbol acetate (TPA) induced ear edema in Webster mice. This test procedure was carried out as follows.
Mice were placed into plastic boxes in groups of six. Eight groups of mice received TPA topically on the right ear. TPA was dissolved in acetone at a concentration of 100 ug/ml. TPA was applied to the right ear by the means of an automatic pipette. Volumes of 10 ul were applied to the inner and outer surfaces of the ear. Each mouse received 2 ug/ear TPA. The left ear (control) received acetone delivered in the same manner. The compounds to be evaluated were given orally 30 min alter treatment with TPA.
Measurements were taken with Oditest calipers, 0-10 mm with 0.01 graduations. The right and left ears were measured 4 hrs after TPA-induced inflammation.
The difference between right and left ear thickness was calculated and the significance was determined by a one way analysis of variance with Dunnet's comparisons to control (P=0.05). Drug effects are expressed as a percent change from control values according to the following formula. [formula]

LTC4 % Inhibition (5-lipoxygenase; dose 0.1 μM)	LTC4 % Inhibition (5-lipoxygenase; dose 0.5 μM)	SMILES	PGE2 % Inhibition (cyclooxygenase; dose 0.5 μM)	inhibition of TPA induced ear edema [1] [%]	other results
–	–	CCCCCC#CCC#CCC#CCC#CCCCC(=O)O [ETYA, reference compound]	–	–	IC50 (cyclooxygenase): 1260 nM
2.1%	38.7%	O=C(CCC1CCCCCCCCCCC1=O)C1=C(O)COC1=O (centres unmarked) [Example 1, 4-Hydroxy-3-[3-(2-oxocyclododecyl)-propionyl]-2-(5H)-furanone]	5.8%	–	PGE2 % Inhibition (cyclooxygenase; dose 0.1 μM): -17.9%
-4.9%	39.5%	O=C(CCC1CCCCCCCCCCC1=O)C1=C(O)CSC1=O (centres unmarked) [Example 2, 4-Hydroxy-3-[3-(2-Oxocyclododecyl)propionyl]-2-(5H)-thiophenone]	3.3%	40	PGE2 % Inhibition (cyclooxygenase; dose 0.1 μM): -35.0%
38% and 53%	64% and 68%	O=C(CCC1CCCCCCCCCCC1=NOCc1ccccc1)C1=C(O)COC1=O (centres unmarked) [Example 3, 3-{3-[2-(Benzyloxyimino)cyclododecyl]-propionyl}-4-hydroxy-2-(5H)-furanone 2-amino-(2-hydroxymethyl)-1,3-propanediol salt]	86% and 59%	34	PGE2 % Inhibition (cyclooxygenase; dose 0.03 μM): 8%; LTC4 % Inhibition (5-lipoxygenase; dose 0.03 μM): 40%
37% and 66%	77%	O=C(CCC1CCCCCCCCCCC1=NOCc1ccccc1)C1=C(O)CSC1=O (centres unmarked) [Example 4, 3-{3-[2-(Benzyloxyimino)cyclododecyl]-propionyl}-4-hydroxy-2-(5H)-thiophenone 2-amino-(2-hydroxymethyl)-1,3-propanediol salt]	82%	19	PGE2 % Inhibition (cyclooxygenase; dose 0.03 μM): 18%; PGE2 % Inhibition (cyclooxygenase; dose 0.35 μM): 52%; LTC4 % Inhibition (5-lipoxygenase; dose 0.03 μM): 45%; LTC4 % Inhibition (5-lipoxygenase; dose 0.35 μM): 97%
–	–	COc1ccc2c(c1)c(CC(=O)O)c(C)n2C(=O)c1ccc(Cl)cc1 [Indomethacin, reference compound]	–	–	activity in TPA induced ear edema ([1]; at 10 mg/g (so in the source)): inactive
–	–	CC(Cc1ccc(O)c(O)c1)C(C)Cc1ccc(O)c(O)c1 (centres unmarked) [NDGA, reference compound]	–	–	IC50 (cyclooxygenase): 2150 nM
